Eleven compounds from ChEMBL document CHEMBL1201862, “PubChem BioAssay data set” (2004) can be followed below.

Experiment in all cases: NCI anticancer screen, dose series, 48 h
In assay [1] the test system is NCI-H226.
Assay [2] deals with 786-0.
Assay [3] has as its system MDA-N.
In assay [4] the test system is OVCAR-8.
For assay [5], the system named is NCI-H460.
The subject of assay [6] is OVCAR-3.
The subject of assay [7] is HCC 2998.
In assay [8] the test system is OVCAR-4.
In assay [9] the test system is HOP-62.
Assay [10] deals with SNB-19.
For assay [11], the system named is UO-31.
Assay [12] has as its system ACHN.
Assay [13] deals with PC-3.
Assay [14] has as its system M14.
In assay [15] the test system is SK-MEL-5.
Assay [16] relates to U-251.
The subject of assay [17] is UACC-62.
Assay [18] deals with MDA-MB-435.
Assay [19] relates to HCT-116.
For assay [20], the system named is SK-MEL-28.

Each structure is given as a SMILES string.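 These data come from cells grown in 96-well plates and exposed to compound for 48 hours at five concentrations. GI50 marks 50% less growth.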 Calls of active or inactive are those of the source. Rule as the data show it: active = GI50 up to about 1.1 µM and inactive = higher.

As to `Cc1ccc(C(=O)OC[C@H]2CC[C@@H](n3cc(N(C)C4CCCCC4)c(=O)[nH]c3=O)O2)cc1`, the GI50 in [1] is 24.4 µM (inactive); in [2], 28.1 µM (inactive); in assay [3], 23.7 µM (inactive); in assay [4], 28.1 µM (inactive); in assay [5], 32.7 µM (inactive); in [6], 21.6 µM (inactive). Besides, the GI50 in [7] was > 100 µM (inactive); in assay [8], 30.9 µM (inactive); in assay [9], 20.6 µM (inactive); in [10], 19.3 µM (inactive); in [11], 13.9 µM (inactive); in assay [12], 26.6 µM (inactive). For the same compound, the GI50 is 29.4 µM (inactive) in assay [13]; 11 µM (inactive) in assay [14]; 18.8 µM (inactive) in assay [15]; 20.2 µM (inactive) in [16]; 29.7 µM (inactive) in assay [17]; 65.2 µM (inactive) in [18]. The GI50 is 16.7 µM (inactive) in [19] and 53.1 µM (inactive) in assay [20].
As to `CC(C)=C=CC(C)(C)NS(=O)(=O)NC(C)(C)C=C=C(C)C`, the GI50 in assay [1] was > 100 µM (inactive); in assay [2], > 100 µM (inactive); in assay [3], > 100 µM (inactive); in assay [4], > 100 µM (inactive); in assay [5], 80.9 µM (inactive); in assay [6], 71.3 µM (inactive). The GI50 in [7] was 25.5 µM (inactive); in [8], > 100 µM (inactive); in [9] it was > 100 µM (inactive); in assay [10], > 100 µM (inactive); in [12], > 100 µM (inactive); in [13], 81.1 µM (inactive). For the same compound, the GI50 in assay [14], in [15], in assay [16], in assay [17], in assay [18] and in assay [19] was > 100 µM (inactive) in each case. Besides, the GI50 in assay [20] is > 100 µM (inactive).
`COc1ccc2[nH]c3c(C)c4ncccc4c(C)c3c2c1`: the GI50 in assay [1] is 4.41 µM (inactive); in [2] it was 1.52 µM (inactive); in assay [3] it was 6.81 µM (inactive); in [4], 3.73 µM (inactive); in [5] it was 2.12 µM (inactive); in assay [6], 2.71 µM (inactive). In addition, the GI50 in assay [7] was 8.97 µM (inactive); in assay [8], 7.43 µM (inactive); in assay [9], 6.84 µM (inactive); in assay [10], > 10 µM (inactive); in assay [12], 5.2 µM (inactive); in [13], 6.11 µM (inactive). Further, the GI50 in assay [14] was 1.64 µM (inactive); in [15] it was > 10 µM (inactive); in [16], 8.43 µM (inactive); in assay [17], > 10 µM (inactive); in assay [18] it was 1.82 µM (inactive); in [19], 3.4 µM (inactive). Moreover, the GI50 in assay [20] was 1.99 µM (inactive).
For `CC(=O)c1ccc2c(c1)CC1(C2)Cc2ccc3c(c2C1=O)CCC3` (stereo not drawn), the GI50 is 19 µM (inactive) in assay [1]; 17.6 µM (inactive) in [2]; 21.8 µM (inactive) in [3]; 29.3 µM (inactive) in assay [5]; 31 µM (inactive) in assay [6]; 15 µM (inactive) in [7]. Further, the GI50 in [8] is 19.2 µM (inactive); in assay [9], 38.9 µM (inactive); in assay [10], 53.1 µM (inactive); in [11], 28.4 µM (inactive); in assay [12] it was 27.7 µM (inactive); in assay [13] it was 21.6 µM (inactive). Besides, the GI50 in assay [14] is 20 µM (inactive); in assay [15], 13.3 µM (inactive); in assay [16], 34.8 µM (inactive); in assay [17] it was 22.1 µM (inactive); in assay [18], 17.9 µM (inactive); in assay [19], 28.3 µM (inactive). In [20], the GI50 was 20.3 µM (inactive).
For `CSc1ncnc2c1cnn2Cc1cn(COCCO)nn1`, the GI50 in assay [1] was > 100 µM (inactive); in [2], 18.7 µM (inactive); in [3] it was 18.5 µM (inactive); in assay [5], 32 µM (inactive); in assay [6], 18.3 µM (inactive); in [7], 32.2 µM (inactive). Further, the GI50 in [8] is 45.5 µM (inactive); in assay [9] it was 64.7 µM (inactive); in [10] it was > 100 µM (inactive); in [11] it was > 100 µM (inactive); in assay [12] it was > 100 µM (inactive); in assay [13] it was 36 µM (inactive). Moreover, the GI50 in [14] was > 100 µM (inactive); in assay [15] it was 46.8 µM (inactive); in [16], 64.1 µM (inactive); in [17], 84.3 µM (inactive); in [18], 11.1 µM (inactive); in assay [19], 45.4 µM (inactive). Besides, the GI50 in assay [20] was > 100 µM (inactive).
As to `Cc1ccc(Cl)c2[nH]c(-c3ccccc3)cc(=O)c12`, the GI50 is 31.3 µM (inactive) in assay [1]; 90.4 µM (inactive) in assay [2]; 22.3 µM (inactive) in [3]; 50.9 µM (inactive) in [4]; 37 µM (inactive) in assay [5]; 36.1 µM (inactive) in assay [6]. In addition, the GI50 is 93.1 µM (inactive) in assay [7]; 37.8 µM (inactive) in assay [8]; 78.3 µM (inactive) in [9]; 30.3 µM (inactive) in [12]; 23.3 µM (inactive) in assay [13]; 39.8 µM (inactive) in assay [14]. Moreover, the GI50 was 15.8 µM (inactive) in assay [15]; 77.8 µM (inactive) in assay [16]; 48.2 µM (inactive) in [17]; 21.1 µM (inactive) in assay [18]; 29.2 µM (inactive) in assay [19]; 39.7 µM (inactive) in [20].
For the compound `C=C(Cl)/C(=C\Cl)CCC(Cl)C(C)C` (stereo not drawn), the GI50 in [1], in assay [2], in [3], in assay [5], in [6] and in assay [7] was > 100 µM (inactive) throughout. Besides, the GI50 in [8], in assay [9], in assay [10], in assay [11], in [12] and in [13] was > 100 µM (inactive) in each case. Besides, the GI50 in [14] was 84.9 µM (inactive); in assay [15], > 100 µM (inactive); in [16] it was > 100 µM (inactive); in [17] it was > 100 µM (inactive); in [18] it was > 100 µM (inactive); in assay [19], > 100 µM (inactive). In [20], the GI50 was > 100 µM (inactive).
Regarding `CCn1c(-c2ccc(OC)cc2)nc2c1C(=O)c1ccccc1C2=O`, the GI50 is 61.1 µM (inactive) in [1]; > 100 µM (inactive) in [2]; > 100 µM (inactive) in assay [3]; > 100 µM (inactive) in assay [4]; > 100 µM (inactive) in [5]; > 100 µM (inactive) in assay [6]. The GI50 in assay [7] is > 100 µM (inactive); in assay [8], > 100 µM (inactive); in assay [9], 59.6 µM (inactive); in assay [10], > 100 µM (inactive); in [12], > 100 µM (inactive); in assay [13], > 100 µM (inactive). Besides, the GI50 in assay [14], in [15], in [16], in assay [17], in [18] and in assay [19] was > 100 µM (inactive) in each case. The GI50 in assay [20] is > 100 µM (inactive).
In the case of `COCCOCCOC1=CC(=O)c2c(O)ccc(O)c2C1=O`, the GI50 in [1] is 2.3 µM (inactive); in [2] it was 1.8 µM (inactive); in [3] it was 0.153 µM (active); in assay [5] it was 1.91 µM (inactive); in assay [6], 1.44 µM (inactive); in assay [7] it was 1.82 µM (inactive). Also, the GI50 is 1.73 µM (inactive) in [8]; 1.71 µM (inactive) in [9]; 1.75 µM (inactive) in [10]; 1.62 µM (inactive) in [11]; 1.61 µM (inactive) in [12]; 2.48 µM (inactive) in assay [13]. In addition, the GI50 in assay [14] was 0.971 µM (active); in [15], 0.173 µM (active); in assay [17], 1.45 µM (inactive); in assay [18] it was 0.0278 µM (active); in assay [19], 0.307 µM (active); in assay [20], 1.54 µM (inactive).
As to `O=Cc1[nH]c(=O)[nH]c(=O)c1CCl`, the GI50 in assay [1] is > 100 µM (inactive); in assay [2], 74.8 µM (inactive); in [3], > 100 µM (inactive); in assay [4], > 82.4 µM (inactive); in [5] it was > 55.8 µM (inactive); in [6], > 100 µM (inactive). Besides, the GI50 was > 100 µM (inactive) in assay [7]; > 60.5 µM (inactive) in assay [8]; > 100 µM (inactive) in assay [9]; > 100 µM (inactive) in [10]; > 100 µM (inactive) in assay [11]; > 83 µM (inactive) in assay [12]. The GI50 in assay [13] is > 100 µM (inactive); in [15] it was > 82 µM (inactive); in [16], > 61 µM (inactive); in [17] it was > 96.4 µM (inactive); in assay [18], > 100 µM (inactive); in [19], 50.5 µM (inactive). The GI50 in assay [20] is > 100 µM (inactive).
In the case of `CC(NC(=N)N)C(=O)O` (stereo not drawn), the GI50 in [1], in assay [2], in assay [3], in assay [4], in [6] and in assay [7] was > 100 µM (inactive) throughout. The GI50 in assay [8], in [9], in [10], in assay [11], in [12] and in assay [13] was > 100 µM (inactive) each time. Further, the GI50 in assay [14], in [15], in assay [16], in assay [17], in [18] and in assay [19] was > 100 µM (inactive) throughout. In assay [20], the GI50 is > 100 µM (inactive).
